Data set [1] deals with Sphingosine 1-phosphate receptor 1 (Homo sapiens, UniProt P21453). Description: Agonist activity at human S1P1 receptor expressed in human EDG1-bla U2OS cells after 18 hrs by beta-arrestin recruitment assay. The class given is cell-based.
The target of data set [2] is T1, Sphingosine 1-phosphate receptor 3 (Homo sapiens, UniProt Q99500). As to the kind of experiment: Agonist activity at human S1P3 receptor expressed in human EDG3-bla U2OS cells after 18 hrs by beta-arrestin recruitment assay. In kind it is cell-based. Background: Activated receptors often draw arrestin, which recruitment assays turn into a signal.
Data set [3] has as its target T1, Sphingosine 1-phosphate receptor 3. Description: Partial agonist activity at human S1P3 receptor expressed in human EDG3-bla U2OS cells after 18 hrs by beta-arrestin recruitment assay. In kind it is cell-based.
Data set [4] concerns Plasma. Description: Drug level in rat plasma treated with 3 mg/kg, po. Further details: dose 3 mg/kg, route oral. The class given is ADME, organism-based. Particulars: in vivo.
The species entered for the next data set is Homo sapiens. As to the kind of experiment: Selectivity ratio of EC50 for human S1P3 receptor to EC50 for human S1P1 receptor.
The test system of data set [5] is Plasma. As to the kind of experiment: Drug metabolism in rat plasma assessed as 2-amino-3-(5-chloro-4-(3-(4-(cyclopentanecarbonyl)piperazin-1-yl)-1,2,4-oxadiazol-5-yl)-2-fluorophenoxy)propyl dihydrogen phosphate formation at 3 mg/kg, po. Further details: dose 3 mg/kg, route oral. Particulars: in vivo. In kind it is ADME, organism-based.
A further data set deals with Rattus norvegicus. As to the kind of experiment: Toxicity in Lewis rat assessed as reduction in circulating lymphocyte count at 3 mg/kg, po after 4 hrs. In kind it is organism-based. Further details: dose 3 mg/kg, route oral. Particulars: in vivo.

As a reminder, the EC50 is the concentration needed to bring the measured effect to its halfway point. High values mean weaker potency, low ones greater potency.

Sequence of Sphingosine 1-phosphate receptor 1 (P21453 whole entry): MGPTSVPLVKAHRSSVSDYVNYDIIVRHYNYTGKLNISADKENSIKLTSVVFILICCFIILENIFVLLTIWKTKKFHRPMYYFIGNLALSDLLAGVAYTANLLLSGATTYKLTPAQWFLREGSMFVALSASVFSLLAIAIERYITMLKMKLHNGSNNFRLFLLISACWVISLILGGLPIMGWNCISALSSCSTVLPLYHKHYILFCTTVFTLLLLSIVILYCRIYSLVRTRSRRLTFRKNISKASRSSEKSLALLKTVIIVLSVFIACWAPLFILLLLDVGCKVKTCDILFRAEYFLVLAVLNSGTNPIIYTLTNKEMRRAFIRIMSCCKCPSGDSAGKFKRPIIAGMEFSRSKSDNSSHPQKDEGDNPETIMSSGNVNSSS
T1 sequence (Q99500 whole entry): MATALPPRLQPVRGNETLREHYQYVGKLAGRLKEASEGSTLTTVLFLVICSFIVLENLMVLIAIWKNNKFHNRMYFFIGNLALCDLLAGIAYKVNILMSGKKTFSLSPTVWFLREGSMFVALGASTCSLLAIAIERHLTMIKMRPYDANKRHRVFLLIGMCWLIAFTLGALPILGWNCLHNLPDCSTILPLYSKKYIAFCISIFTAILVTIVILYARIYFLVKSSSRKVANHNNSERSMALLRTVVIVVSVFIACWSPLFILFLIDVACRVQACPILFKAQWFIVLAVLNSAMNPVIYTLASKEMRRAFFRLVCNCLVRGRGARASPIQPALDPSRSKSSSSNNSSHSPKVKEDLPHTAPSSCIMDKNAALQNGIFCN

Consider `N[C@@H](CO)COc1cc(Cl)c(-c2noc(N3CCN(C(=O)C4CCCC4)CC3)n2)cc1F`, for which the EC50 in data set [1] is 55 nM; in data set [2], above 10000 nM.
`CC1(C)CC(C(=O)N2CCN(c3noc(-c4cc(F)c(OCCCO)cc4Cl)n3)CC2)C1`: the concentration giving a half-maximal response (EC50) is 1100 nM in data set [1] and above 10000 nM in data set [2].
With `CC1(C)CC(C(=O)N2CCN(c3noc(-c4cc(F)c(OCC(=O)O)cc4Cl)n3)CC2)C1`, the EC50 in data set [1] and in data set [2] was above 10000 nM each time.
For the compound `CCc1cccnc1C(=O)N1CCN(c2noc(-c3cc(F)c(OC[C@@H](N)CO)cc3Cl)n2)CC1`, the EC50 in data set [1] is 5.3 nM; in data set [2], above 10000 nM.
On to `N[C@@H](CO)COc1cc(Cl)c(-c2nc(N3CCN(C(=O)c4ccccc4)CC3)no2)cc1F`, for which the results for the EC50 in data set [1] and in data set [2] were 6.5 nM and above 10000 nM, respectively.
Turning to `CC(C)(C(=O)N1CCN(c2noc(-c3cc(F)c(OC[C@@H](N)CO)cc3Cl)n2)CC1)C(F)(F)F`, the concentration giving a half-maximal response (EC50) came out at 9.8 nM in data set [1] and 4700 nM in data set [2]. For the same compound, in data set [3], the %max came to 44%.
The like results for `N[C@@H](CO)COc1cc(Cl)c(-c2nnc(N3CCN(C(=O)c4cccc(Cl)c4)CC3)s2)cc1F` were, in that order, 2.3 nM, 380 nM and 48%.
Take `CC1(C)CC(C(=O)N2CCN(c3noc(-c4cc(F)c(OCCC(=O)O)cc4Cl)n3)CC2)C1`: the EC50 in data set [1] is 2700 nM; in data set [2], above 10000 nM.
On the same counts, the results for `N[C@@H](CO)COc1c(Cl)cc(-c2nc(N3CCN(C(=O)C4CCCCC4)CC3)no2)cc1Cl` are above 10000 nM and above 10000 nM.
With `CC1(C)CC(C(=O)N2CCN(c3noc(-c4cc(F)c(OCCO)cc4Cl)n3)CC2)C1`, the EC50 in data set [1] is 910 nM; in data set [2] it was above 10000 nM.
`N[C@@H](CO)COc1cc(Cl)c(-c2nc(N3CCN(C(=O)C4CCC4)CC3)no2)cc1F`: the EC50 was 17 nM in data set [1] and above 10000 nM in data set [2].
As to `N[C@@H](CO)COc1c(Cl)cc(-c2nc(N3CCN(C(=O)C4CCCC4)CC3)no2)cc1Cl`, the EC50 in data set [1] was 1600 nM; in data set [2], above 10000 nM.
With `N[C@H](CO)COc1cc(Cl)c(-c2nc(N3CCN(C(=O)C4CCCC4)CC3)no2)cc1F`, the values for the EC50 in data set [1] and in data set [2] were 420 nM and above 10000 nM, respectively.
Consider `CC1(C)CC(C(=O)N2CCN(c3noc(-c4cc(F)c(OC[C@@H]5COC(=O)N5)cc4Cl)n3)CC2)C1`, for which the concentration for a half-maximal effect (EC50) in data set [1] and in data set [2] was above 10000 nM throughout.
Take `C[C@H](O)COc1cc(Cl)c(-c2nc(N3CCN(C(=O)C4CC(C)(C)C4)CC3)no2)cc1F`: the EC50 in data set [1] was 1100 nM; in data set [2] it was above 10000 nM.
On the same counts, the results for `O=C(O)CCOc1cc(Cl)c(-c2nc(N3CCN(C(=O)C4CCCC4)CC3)no2)cc1F` are 240 nM and above 10000 nM.
As to `N[C@@H](CO)COc1cc(Cl)c(-c2nc(N3CCN(C(=O)c4cccc(Cl)c4)CC3)no2)cc1F`, the EC50 in data set [1] was 4.1 nM; in data set [2] it was above 10000 nM.
On to `N[C@@H](CO)COc1cc(Cl)c(-c2noc(C3CCN(C(=O)C4CCCC4)CC3)n2)cc1F`, for which the figures for the EC50 in data set [1] and in data set [2] were 45 nM and above 10000 nM, respectively.
For the compound `N[C@@H](CO)COc1cc(Cl)c(-c2nc(N3CCN(C(=O)C4CCCCC4)CC3)no2)cc1F`, the EC50 in data set [1] was 1.2 nM; in data set [2], above 10000 nM.
Turning to `N[C@H](COc1cc(Cl)c(-c2nc(N3CCN(C(=O)C4CCCC4)CC3)no2)cc1F)COP(=O)(O)O`, the Drug metabolism result in the data set with Plasma [4] is “metabolite_detected”. The values for the EC50 in data set [1] and in data set [2] were 0.5 nM and 940 nM, respectively. Also, in the data set filed under Homo sapiens, the Ratio EC50 amounted to 2000.
In data set [1], `CCC(C)(C)C(=O)N1CCN(c2noc(-c3ccccc3OC)n2)CC1` had an EC50 of 3600 nM.
Take `N[C@H](CO)COc1cc(Cl)c(-c2nc(N3CCN(C(=O)c4cccc(Cl)c4)CC3)no2)cc1F`: the EC50 in data set [1] was 2400 nM; in data set [2], above 10000 nM.
Regarding `N[C@@H](CO)COc1c(Cl)cc(-c2nc(N3CCN(C(=O)c4cccc(Cl)c4)CC3)no2)cc1Cl`, the EC50 in data set [1] is above 5400 nM; in data set [2] it was above 10000 nM.
`N[C@@H](CO)COc1cc(Cl)c(-c2nnc(N3CCN(C(=O)C4CCCC4)CC3)s2)cc1F`: the EC50 was found to be 0.5 nM in data set [1] and 410 nM in data set [2]. Further, the %max in data set [3] worked out at 45%.
Turning to `O=C(O)C1CN(Cc2cc(Cl)c(-c3nc(N4CCN(C(=O)C5CCCC5)CC4)no3)cc2F)C1`, the EC50 in data set [1] was 2100 nM; in data set [2], above 10000 nM.
As for `N[C@@H](CO)COc1cc(Cl)c(-c2nc(N3CCN(C(=O)C4CCCC4)CC3)no2)cc1F`, the EC50 in data set [1] was 1.7 nM; in data set [2], above 10000 nM. Moreover, the Drug metabolism result with Plasma [5] is recorded as “metabolite_detected”. Besides, the Activity result with Rattus norvegicus was “Toxic”.
Turning to `CC1(C)CC(C(=O)N2CCN(c3noc(-c4cc(F)c(OC[C@@H](O)CO)cc4Cl)n3)CC2)C1`, the values for the EC50 in data set [1] and in data set [2] were 1100 nM and above 10000 nM, respectively.
On to `N[C@@H](CO)COc1cc(Cl)c(-c2noc(N3CCN(C(=O)c4cccc(Cl)c4)CC3)n2)cc1F`, for which the EC50 in data set [1] was 12 nM; in data set [2] it was above 10000 nM.
The like results for `N[C@@H](CO)COc1cc(Cl)c(-c2nc(N3CCN(C(=O)c4ccccn4)CC3)no2)cc1F` were, in that order, 92 nM and above 10000 nM.
As to `CCC(C)(C)C(=O)N1CCN(c2noc(-c3cc(F)c(OCC(N)CO)cc3Cl)n2)CC1` (configuration not stated), the EC50 in data set [1] worked out at 46 nM.
In the case of `CC1(C)CC(C(=O)N2CCN(c3noc(-c4cc(F)c(OC[C@@H](N)CO)cc4Cl)n3)CC2)C1`, the EC50 in data set [1] came to 3.1 nM; in data set [2], 450 nM. Moreover, the %max in data set [3] is 63%.
`CC1(C)CC(C(=O)N2CCN(c3noc(-c4cc(F)c(OC[C@H](O)CO)cc4Cl)n3)CC2)C1`: the EC50 in data set [1] is 1200 nM; in data set [2], above 10000 nM.
As to `N[C@H](CO)COc1cc(Cl)c(-c2nc(N3CCN(C(=O)C4CCC4)CC3)no2)cc1F`, the EC50 in data set [1] is 1300 nM; in data set [2] it was above 10000 nM.

Values taken from ChEMBL document CHEMBL3351264, “Piperazinyl-oxadiazoles as selective sphingosine-1-phosphate receptor agonists” (Bioorg Med Chem Lett, 2014).
